Biological target: T1, Polyphenol oxidase 2 (Agaricus bisporus, UniProt O42713)
T1 sequence (O42713 whole entry): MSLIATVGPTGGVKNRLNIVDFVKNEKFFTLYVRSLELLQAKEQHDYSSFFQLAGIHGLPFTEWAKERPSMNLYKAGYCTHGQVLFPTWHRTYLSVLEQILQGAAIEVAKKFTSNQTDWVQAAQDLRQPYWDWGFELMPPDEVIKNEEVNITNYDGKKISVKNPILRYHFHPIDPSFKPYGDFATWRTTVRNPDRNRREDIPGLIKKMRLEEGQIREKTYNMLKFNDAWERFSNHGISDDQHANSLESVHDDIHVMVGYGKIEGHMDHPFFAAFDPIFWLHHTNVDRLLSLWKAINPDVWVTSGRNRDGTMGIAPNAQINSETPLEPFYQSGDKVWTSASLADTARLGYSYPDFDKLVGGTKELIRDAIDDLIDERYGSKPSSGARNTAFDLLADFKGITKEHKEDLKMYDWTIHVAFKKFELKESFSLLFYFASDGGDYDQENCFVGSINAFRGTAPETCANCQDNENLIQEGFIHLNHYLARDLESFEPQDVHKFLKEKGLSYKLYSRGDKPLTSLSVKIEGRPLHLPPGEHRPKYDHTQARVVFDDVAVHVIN
Test: Inhibition Assay
Excerpt: Inhibition of alklbenzaldehydes on tyrosinase enzyme.

Row | Compound | IC50 [µM] | Ki [µM]
1 | Cc1ccc(C=O)cc1 [4-Methylbenzaldehyde] | 120 | 
2 | Cc1cccc(C=O)c1 [m-Tolualdehyde, b] | 450 | 290
3 | Cc1ccccc1C=O [o-Tolualdehyde, a] | 2600 | 1850
4 | CCc1ccc(C=O)cc1 [p-Ethylbenzaldehyde, d] | 95 | 
5 | CCCCCCCc1ccc(C=O)cc1 [p-Heptylbenzaldehyde, k] | 8.8 | 
6 | CCCCCCc1ccc(C=O)cc1 [p-Hexylbenzaldehyde, j] | 8 | 
7 | CC(C)c1ccc(C=O)cc1 [p-Isopropylbenzaldehyde, f] | 75 | 
8 | CCCCCCCCc1ccc(C=O)cc1 [p-Octylbenzaldehyde, l] | 10 | 
9 | CCCCCc1ccc(C=O)cc1 [p-Pentylbenzaldehyde, i] | 13.5 | 
10 | CCCc1ccc(C=O)cc1 [p-Propyl-benzaldehyde, e] | 75 | 
11 | CC(C)(C)c1ccc(C=O)cc1 [p-Tert-butylbenzaldehyde, g] | 38 | 
12 | CCCCc1ccc(C=O)cc1 [p-butyl-benzaldehyde, h] | 38 | 
